Assay results as given in paper PMC4971050 (Forensic Toxicology, 2016).
pEC50: −log10 of the molar value.

Columns and labels:
human CB2 receptor = human CB2 receptor (Homo sapiens, UniProt P34972); assay: FLIPR membrane potential assay; format: cell-based; settings: for pEC50: membrane potential; for hCB2 Max ± SEM (% CP 55,940): maximum drug effect as percentage of maximally effective (1 µM) CP 55,940; for hCB2 Max ± SEM (% CP 55,940) at 30 µM: effect at 30 µM, highest concentration tested, relative to 1 µM CP 55,940
human CB1 receptor = human CB1 receptor (Homo sapiens, UniProt P21554); assay: FLIPR membrane potential assay; format: cell-based; settings: for pEC50: membrane potential; for CB1 selectivity: ratio of CB2 EC50 to CB1 EC50; for hCB1 Max ± SEM (% CP 55,940): maximum drug effect as percentage of maximally effective (1 µM) CP 55,940
[1] = hCB1 pEC50 ± SEM, AtT-20-CB1 cells
[2] = hCB2 pEC50 ± SEM, AtT-20-CB2 cells

human CB1 receptor, sequence (P21554 whole entry): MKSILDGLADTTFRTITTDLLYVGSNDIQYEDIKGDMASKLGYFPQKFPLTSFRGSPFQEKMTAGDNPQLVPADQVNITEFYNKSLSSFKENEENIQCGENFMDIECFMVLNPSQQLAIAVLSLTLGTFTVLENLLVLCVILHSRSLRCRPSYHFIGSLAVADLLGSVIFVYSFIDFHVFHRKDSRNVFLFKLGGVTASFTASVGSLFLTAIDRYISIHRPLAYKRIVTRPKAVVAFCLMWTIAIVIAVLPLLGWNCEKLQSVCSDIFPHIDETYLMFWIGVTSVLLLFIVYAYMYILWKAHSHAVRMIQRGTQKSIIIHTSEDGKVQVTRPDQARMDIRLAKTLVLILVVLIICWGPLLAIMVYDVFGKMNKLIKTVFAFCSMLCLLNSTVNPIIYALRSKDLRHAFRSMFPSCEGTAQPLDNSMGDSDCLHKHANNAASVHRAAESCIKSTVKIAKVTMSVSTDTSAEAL
human CB2 receptor, sequence (P34972 whole entry): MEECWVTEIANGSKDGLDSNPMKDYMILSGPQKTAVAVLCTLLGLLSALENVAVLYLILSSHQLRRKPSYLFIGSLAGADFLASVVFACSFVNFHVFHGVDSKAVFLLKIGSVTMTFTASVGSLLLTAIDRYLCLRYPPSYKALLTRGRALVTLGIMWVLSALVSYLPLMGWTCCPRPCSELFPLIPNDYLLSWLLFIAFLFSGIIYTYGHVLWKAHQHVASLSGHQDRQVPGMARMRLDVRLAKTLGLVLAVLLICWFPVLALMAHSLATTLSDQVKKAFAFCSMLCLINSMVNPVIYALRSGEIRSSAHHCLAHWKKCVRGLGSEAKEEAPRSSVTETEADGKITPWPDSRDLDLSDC

Structure (SMILES) | pEC50 (human CB2 receptor; hCB2 EC50, AtT-20-CB2 cells) | pEC50 (human CB1 receptor; hCB1 EC50, AtT-20-CB1 cells) | CB1 selectivity (human CB1 receptor) | hCB2 Max ± SEM (% CP 55,940) (human CB2 receptor) | pEC50 (human CB1 receptor; [1]) | hCB1 Max ± SEM (% CP 55,940) (human CB1 receptor) | pEC50 (human CB2 receptor; [2]) | hCB2 Max ± SEM (% CP 55,940) at 30 µM (human CB2 receptor) | hCB1 Max ± SEM (% CP 55,940) at 30 µM (human CB1 receptor; effect at 30 µM, highest concentration tested, relative to 1 µM CP 55,940)
CCCCCn1nc2ccccc2c1C(=O)N[C@H](C(N)=O)C(C)C [compound 9, (S)-N-(1-Amino-3-methyl-1-oxobutan-2-yl)-2-pentyl-2H-indazole-3-carboxamide] | 5.39 | 5.39 | 1.0 |  |  |  |  |  | 
CC(C)[C@H](NC(=O)c1nn(CCCCCF)c2ccccc12)C(N)=O [compound 6, (S)-N-(1-Amino-3-methyl-1-oxobutan-2-yl)-1-(5-fluoropentyl)-1H-indazole-3-carboxamide] | 8.25 |  | 2.0 | 98 ± 8 % CP 55,940 | 8.55 | 132 ± 9 % CP 55,940 |  |  | 
CCCCCn1nc(C(=O)N[C@H](C(N)=O)C(C)C)c2ccccc21 [compound 5, (S)-N-(1-Amino-3-methyl-1-oxobutan-2-yl)-1-pentyl-1H-indazole-3-carboxamide] | 8.00 | 8.19 | 1.5 | 102 ± 9 % CP 55,940 |  | 142 ± 15 % CP 55,940 | 8.01 |  | 
CC(C)[C@H](NC(=O)c1c2ccccc2nn1CCCCCF)C(N)=O [compound 10, (S)-N-(1-Amino-3-methyl-1-oxobutan-2-yl)-2-(5-fluoropentyl)-2H-indazole-3-carboxamide] | 5.53 | 5.71 | 1.5 |  | 5.72 |  |  | 47 ± 15 (at 30 µM) % CP 55,940 | 
CC(C)[C@H](NC(=O)c1c2ccccc2nn1Cc1ccc(F)cc1)C(N)=O [compound 8, (S)-N-(1-Amino-3-methyl-1-oxobutan-2-yl)-2-(4-fluorobenzyl)-2H-indazole-3-carboxamide] |  |  |  |  |  |  |  | 25 ± 4 (at 30 µM) % CP 55,940 | 61 ± 12 (at 30 µM) % CP 55,940
CC(C)[C@H](NC(=O)c1c2ccccc2nn1CC1CCCCC1)C(N)=O [compound 7, (S)-N-(1-Amino-3-methyl-1-oxobutan-2-yl)-2-(cyclohexylmethyl)-2H-indazole-3-carboxamide] |  |  |  |  |  |  |  | 45 ± 7 (at 30 µM) % CP 55,940 | 
CC(C)[C@H](NC(=O)c1nn(CC2CCCCC2)c2ccccc12)C(N)=O [compound 3, (S)-N-(1-Amino-3-methyl-1-oxobutan-2-yl)-1-(cyclohexylmethyl)-1H-indazole-3-carboxamide] |  | 8.11 | 2.7 | 104 ± 11 % CP 55,940 |  | 142 ± 18 % CP 55,940 | 7.68 |  | 
CC(C)[C@H](NC(=O)c1nn(Cc2ccc(F)cc2)c2ccccc12)C(N)=O [compound 4, (S)-N-(1-Amino-3-methyl-1-oxobutan-2-yl)-1-(4-fluorobenzyl)-1H-indazole-3-carboxamide] | 8.17 |  | 3.2 | 98 ± 10 % CP 55,940 | 8.67 | 151 ± 14 % CP 55,940 |  |  | 
